These results are taken from patent publication US20250134860A1, “NOVEL COMPOUND, AND COMPOSITION FOR PREVENTING, ALLEVIATING OR TREATING BACTERIAL INFLAMMATION AND INFLAMMASOME-MEDIATED DISEASES, COMPRISING SAME AS ACTIVE INGREDIENT” (Quorum Bio Co., Ltd., priority 2022, published 2025).

One data set concerns P. gingivalis. Nature of the data set: Inhibitory effect on P. gingivalis biofilm formation (crystal violet, OD590nm). In kind it is cell-based, Porphyromonas gingivalis.
In data set [1] the test system is mouse bone marrow-derived macrophages. Put plainly: Cytotoxicity in mouse bone marrow-derived macrophages (MTT). The format is cell-based. As to conditions: at a concentration of 16 μM or less (0.5-16 μM tested), 24 hours. As for the experimental part:
Bone marrow was isolated from the femur and tibia of 8-12 week old C57BL/6J mice (available from Daehan Biolink) using a 26 g syringe, and the isolated bone marrow was differentiated into macrophages by culturing a medium containing IMDM media+30% L929 cell supernatant+10% fetal bovine serum+1% pencillin/streptomycin+1% non-essential amino acid+1% sodium pyruvate in a 150TT cell culture plate for 6 days, and used for the experiment.
The differentiated macrophages were seeded in 200 μl increments in a 48-well plate at a concentration of 1×10^6 cell/ml, and stabilized at 37° C. and 5% CO2 for 12 hours. […]
Then, the supernatant of the cultured cells was removed, treated with 200 μl of MTT solution having a concentration of 400 μg/ml, and then reacted at […] and 5% CO2 for 4 hours. Then, the reaction solution was removed, 200 μl of DMSO was added, and the absorbance was measured at 570 nm. At this time, the viability of cells treated with the sample was calculated based on the viability of untreated cells considered as 100%, and is shown in FIG. 6. […]
The supernatant of the cultured cells was then removed, 200 μl of MTT solution having a concentration of 400 μg/ml was added, and then reacted at […] and 5% CO2 for 4 hours. Then, the reaction solution was removed, 200 μl of DMSO was added, and the absorbance was measured at 570 nm. […]

The next data set concerns A. baumannii. Put plainly: Inhibitory effect on biofilm formation in A. baumannii. In kind it is cell-based, Acinetobacter baumannii. As to conditions: 0.006, 0.06, 0.6 μg/ml; 48 hours; compared with control (CT). As for the experimental part:
The inhibitory effect of the compound of Example 1-2 on biofilm formation in P. aeruginosa (available from the Korean Collection for Oral Microbiology (KCOM)) and A. baumannii (available from the Korea Culture Center of Microorganisms (KCCM)) was confirmed.
Sterilized cover glass slips (round, 12 mm radius) were placed individually at a bottom of each well of a cell culture plate (24-well plate) using forceps, and the compound of Example 1-2 was diluted in the medium (P. aeruginosa: LB medium, A. baumannii: NB medium) cultured with bacteria so that the final concentrations were 0.006 μg/ml, 0.06 μg/ml, and 0.6 μg/ml.
The prepared culture medium was dispensed into a cell culture plate in which glass slips were placed, and the respective bacteria were inoculated to a concentration of 2×10^7 cells/ml. […]
The biofilm in which bacteria cultured for each group were formed on glass slips was stained with 1% crystal violet solution for 15 minutes, and then washed three times with PBS (phosphate buffered saline) solution, and decolorized with acetone-alcohol (20:80, vol/vol). After the decolorizing solution containing crystal violet was put in 200 μl increments in a 96-well microplate for each group, the absorbance (OD590nm) was measured using an absorbance microplate reader (Epoch2, Bio-Tek, USA), and the biofilm formation level was compared.

Data set [2] concerns human monocyte cell line (THP-1). Put plainly: Cytotoxicity in human monocyte cell line (CCK-8). The format is cell-based. As to conditions: 0.002, 0.02, 0.2, 2 μM, 24 hours, at any concentration. As for the experimental part: The human monocyte cell line (THP-1) was cultured in a 10% fetal bovine serum (Hyclone, Waltham, MA, USA), and a RPMI 1640 medium supplemented with 2.05 mM L-glutamate and antibiotics (100 units/ml penicillin, 100 μg/ml streptomycin), and then seeded in a 96 well microtiter plate at a concentration of 1×10^5 cells/well. The compound of Example 1-2 was diluted to a final concentration of 0.002 μM, 0.02 μM, 0.2 μM, and 2 μM, cells in each well were treated and cultured for 24 hours. Then, the cultured cells were treated with 10 μl of Cell Counting Kit-8 (CCK-8, DOJINDO, Kumamoto, Japan) solution in each well, and then the absorbance was measured at 450 nm for each time zone (1 h, 2 h, 3 h), and the results were derived based on the absorbance data from the last time zone, 3 h. At this time, the cell viability of untreated cells was set as 100% as the reference, and the cell viability of the cells treated with the sample was calculated and shown in FIG. 19.

Data set [3] is described as follows: General symptoms and body weight in the rat micronucleus study. The format is in vivo. As for the experimental part:
In addition, body weight was measured on the day of administration start and bone marrow collection to confirm presence/absence of changes due to administration of the substance, and the results are shown in Table 4 below.

“And” between values parts separate entries of the source, which are not always exact repeats. Identical values can stand only once.

For `Cc1ccc(C(=C2c3ccccc3C(=O)N2C)c2ccc(C)cc2)cc1` [Example 1-2, 3-(di-p-tolylmethylene)-2-methylisoindolin-1-one], in the data set with P. gingivalis (DPD 10 μM + compound 0.002, 0.02, 0.2, 2 μM, 48 hours, anaerobic, OD590nm), the “biofilm formation of P. gingivalis increased by DPD” value is “inhibited in a concentration-dependent manner”. In addition, the “ability to inhibit biofilm formation of P. gingivalis at the same concentration” value in the data set on P. gingivalis (Example 1-2 against comparative example compound, 0.002-2 μM with DPD) is reported as “better ability to inhibit biofilm formation than the comparative example compound”. Also, the “cytotoxicity (cell viability, MTT)” value in data set [1] is listed as “did not exhibit cytotoxicity”. Moreover, the “biofilm formation of A. baumannii” value in the data set on A. baumannii is reported as “significantly suppressed in a concentration-dependent manner”. Moreover, in data set [2], the “cytotoxicity (cell viability, CCK-8)” value is “did not exhibit cytotoxicity”. In addition, the “Body weight (g) before 1st dosing” value in data set [3] (500 mg/kg/day S.C., individual animals 1201-1205) is 263.4 g; in data set [3] (1,000 mg/kg/day S.C., individual animals 1301-1305), 266.3 g and 251.3 g and 272.4 g; in data set [3] (2,000 mg/kg/day S.C., individual animals 1401-1405), 266.2 g. Moreover, the “Body weight (g) before 1st dosing, Mean” value in data set [3] (2,000 mg/kg/day S.C., group mean) was determined as 266.9 g. Moreover, the “change in body weight compared to the negative control” value in data set [3] (all doses (500, 1000, 2000 mg/kg/day S.C.)) was “did not show a statistically significant change”. The “clinical signs in rats” value in data set [3] (all doses (500, 1000, 2000 mg/kg/day S.C.), observation period) is given as “no abnormal clinical signs”.
